From patent US20230121952A1 (INFLAZOME LIMITED, priority 2020, published 2023)

Legend:
[1] = target: T1, NLRP3 (Homo sapiens, UniProt Q96P20); experiment: Human whole blood IL-1β release assay; type: cell-based; design: Human whole blood in Li-heparin tubes was obtained from healthy donors; from tissue; host or cells: human whole blood from healthy volunteer donors, LPS-primed, nigericin-stimulated; settings: 1 μg/ml LPS, compound 3 hrs, nigericin 10 μM 1 hr, IL-1β in supernatant (AlphaLisa), read-out: HWB IC50
Experimental: For systemic delivery, the ability to inhibit NLRP3 when the compounds are present within the bloodstream is of great importance. For this reason, the NLRP3 inhibitory activity of a number of compounds in human whole blood was investigated in accordance with the following protocol.
Human whole blood in Li-heparin tubes was obtained from healthy donors from a volunteer donor panel. • 1. Plate out 80 μl of whole blood containing 1 μg/ml of LPS in 96-well, clear bottom cell culture plate (Corning #3585) • 2. Add 10 μl compound (8 points half-log dilution with 10 μM top dose) or vehicle (DMSO 0.1% FAC) to the appropriate wells • 3. Incubate for 3 hrs at 37° C., 5% CO2 • 4. Add 10 μl nigericin (Sigma #N7143) (10 μM FAC) to all wells • 5. Incubate for 1 hr at 37° C., 5% CO2 • 6. At the end of the incubation period, spin plates at 300×g for 5 mins to pellet cells and remove 20 μl of supernatant and add to 96-well v-bottom plates for IL-1β analysis (note: these plates containing the supernatants can be stored at −80° C. to be analysed at a later date) • 7. IL-1β was measured according to the manufacturer protocol (Perkin Elmer-AlphaLisa IL-1 Kit AL220F-5000) • 8. IC50 data is fitted to a non-linear regression equation (log inhibitor vs response-variable slope 4-parameters)

[2] = target: T1, NLRP3; experiment: THP-1 cells pyroptosis assay; type: cell-based; design: Seed THP-1 cells (25,000 cells/well) containing 1.0 μg/ml LPS; host or cells: THP-1 cells, LPS-primed, nigericin-stimulated; settings: 1.0 μg/ml LPS, compound 3 hrs, nigericin 5 μM 1 hr, resazurin readout
Experimental: THP-1 cells (ATCC #TIB-202) were grown in RPMI containing L-glutamine (Gibco #11835) supplemented with 1 mM sodium pyruvate (Sigma #S8636) and penicillin (100 units/ml)/streptomycin (0.1 mg/ml) (Sigma #P4333) in 10% Fetal Bovine Serum (FBS) (Sigma #F0804). The cells were routinely passaged and grown to confluency (˜10^6 cells/ml). On the day of the experiment, THP-1 cells were harvested and resuspended into RPMI medium (without FBS). The cells were then counted and viability (>90%) checked by Trypan blue (Sigma #T8154). Appropriate dilutions were made to give a concentration of 625,000 cells/ml. To this diluted cell solution was added LPS (Sigma #L4524) to give a […] Final Assay Concentration (FAC). 40 μl of the final preparation was aliquoted into each well of a 96-well plate. The plate thus prepared was used for compound screening.
The following method step-by-step assay was followed for compound screening. • 1. Seed THP-1 cells (25,000 cells/well) containing 1.0 μg/ml LPS in 40 μl of RPMI medium (without FBS) in 96-well, black walled, clear bottom cell culture plates coated with poly-D-lysine (VWR #734-0317) • 2. Add 5 μl compound (8 points half-log dilution, with 10 μM top dose) or vehicle (DMSO 0.1% FAC) to the appropriate wells • 3. Incubate for 3 hrs at 37° C., 5% CO2 • 4. Add 5 μl nigericin (Sigma #N7143) (FAC 5 μM) to all wells • 5. Incubate for 1 hr at 37° C., 5% CO2 • 6. At the end of the incubation period, spin plates at 300×g for 3 mins and remove supernatant • 7. Then add 50 μl of resazurin (Sigma #R7017) (FAC 100 μM resazurin in RPMI medium without FBS) and incubate plates for a further 1-2 hrs at 37° C. and 5% CO2 • 8. Plates were read in an Envision reader at Ex 560 nm and Em 590 nm • 9. IC50 data is fitted to a non-linear regression equation (log inhibitor vs response-variable slope 4-parameters) 96-well Plate Map

T1 sequence (Q96P20 whole entry): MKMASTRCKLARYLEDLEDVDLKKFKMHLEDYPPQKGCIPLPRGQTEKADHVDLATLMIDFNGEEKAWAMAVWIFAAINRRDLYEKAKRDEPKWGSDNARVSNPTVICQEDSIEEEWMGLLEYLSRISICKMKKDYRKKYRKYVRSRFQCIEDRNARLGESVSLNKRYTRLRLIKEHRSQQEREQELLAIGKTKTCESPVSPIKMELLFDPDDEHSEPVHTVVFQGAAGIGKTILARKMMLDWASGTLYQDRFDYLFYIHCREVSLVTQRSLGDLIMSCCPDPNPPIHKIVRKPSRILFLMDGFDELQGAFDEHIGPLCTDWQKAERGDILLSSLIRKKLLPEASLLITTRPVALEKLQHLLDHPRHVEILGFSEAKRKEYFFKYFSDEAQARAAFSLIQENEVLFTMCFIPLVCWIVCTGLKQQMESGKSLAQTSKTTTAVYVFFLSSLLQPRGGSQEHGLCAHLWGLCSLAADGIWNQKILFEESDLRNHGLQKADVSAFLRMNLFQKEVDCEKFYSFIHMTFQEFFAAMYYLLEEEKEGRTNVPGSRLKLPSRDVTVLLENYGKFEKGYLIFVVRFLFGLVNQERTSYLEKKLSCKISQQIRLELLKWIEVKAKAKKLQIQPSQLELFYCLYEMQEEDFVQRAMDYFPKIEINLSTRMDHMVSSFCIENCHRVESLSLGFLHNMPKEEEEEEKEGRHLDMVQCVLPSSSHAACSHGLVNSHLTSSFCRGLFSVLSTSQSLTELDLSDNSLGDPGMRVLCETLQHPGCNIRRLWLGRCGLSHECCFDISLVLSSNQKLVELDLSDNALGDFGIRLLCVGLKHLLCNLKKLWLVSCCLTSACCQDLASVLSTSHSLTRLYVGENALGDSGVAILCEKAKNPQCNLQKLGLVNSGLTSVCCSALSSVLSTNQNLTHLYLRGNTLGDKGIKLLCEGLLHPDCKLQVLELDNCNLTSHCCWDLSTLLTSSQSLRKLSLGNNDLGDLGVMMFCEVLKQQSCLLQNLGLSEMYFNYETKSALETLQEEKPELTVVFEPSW

## O=S1(=O)c2nnc([nH]2)Nc2c(ccc3c2CCC3)-c2ccnc(c2)OCCN2CCCC23CCN1CC3 [Example 5, 8-oxa-28λ^6-thia-5,10,23,25,26,29,34-heptazaheptacyclo-[27.2.2.1^9,13.1^24,27.0^1,5.0^14,22.0^17,21]pentatriaconta-9(35),10,12,14,16,21,24,26-octaene 28,28-dioxide]
[1]
  IC50: ≤ 500 nM
[2]
  IC50: ≤ 500 nM

## CC1(C)COc2cc(ccn2)-c2ccc3c(c2Nc2nnc([nH]2)S(=O)(=O)c2cccc1c2)CCC3 [Example 8, 22,22-dimethyl-24-oxa-16 λ^6-thia-11,13,14,26,31-pentazahexacyclo-[23.3.1.1^12,15.1^17,21.0^2,10.0^5,9] hentriaconta-1(28),2,4,9,12,14,17,19,21(30),25(29),26-undecaene 16,16-dioxide]
[1]
  IC50: ≤ 10000 nM
[2]
  IC50: ≤ 5000 nM

## CN1CCOc2cc(ccn2)-c2ccc3c(c2Nc2nnc([nH]2)S(=O)(=O)N2CCC1CC2)CCC3 [Example 9, 25-methyl-22-oxa-2λ^6-thia-1,4,5,7,20,25,32-heptaazahexacyclo-[24.2.2.1^3,6.1^17,21.0^8,16.0^9,13]dotriaconta-3,5,8,13,15,17,19,21(31)-octaene-2,2-dioxide]
[1]
  IC50: ≤ 500 nM
[2]
  IC50: ≤ 500 nM

## CC1(C)COc2cc(ccn2)-c2ccc3c(c2Nc2nnc([nH]2)S(=O)(=O)N2CC4(CCN1C4)C2)CCC3 [Example 10, 23,23-dimethyl-25-oxa-16λ^6-thia-11,13,14,17,22,27,33-heptaazaheptacyclo[24.3.1.1^12,15.1^17,19.1^19,22.0^2,10.0^5,9]tritriaconta-1(29),2,4,9,12,14,26(30),27-octaene-16,16-dioxide]
[1]
  IC50: ≤ 500 nM
[2]
  IC50: ≤ 100 nM

## CN1CCOc2cc(ccn2)-c2ccc3c(c2Nc2nnc([nH]2)S(=O)(=O)N2CC(C1)C2)CCC3 [Example 11, 21-methyl-24-oxa-16λ^6-thia-11,13,14,17,21,26,31-heptaazahexacyclo-[23.3.1.1^12,15.1^17,19.0^2,10.0^5,9]hentriaconta-1(28),2,4,9,12,14,25(29),26-octaene-16,16-dioxide]
[1]
  IC50: ≤ 500 nM
[2]
  IC50: ≤ 100 nM

## CN1CCOc2cc(ccn2)-c2ccc3c(c2Nc2nnc([nH]2)S(=O)(=O)N2CC[C@@H](C1)C2)CCC3 [Example 12, (20S)-22-methyl-25-oxa-16λ^6-thia-11,13,14,17,22,27,32-heptaazahexacyclo[24.3.1.1^12,15.1^17,20.0^2,10.0^5,9]dotriaconta-1(29),2,4,9,12,14,26(30),27-octaene-16,16-dioxide]
[1]
  IC50: ≤ 500 nM
[2]
  IC50: ≤ 500 nM
